Assay results taken from patent US7999000B2, “N-(2-amino-phenyl)-acrylamides” (Hoffmann-La Roche Inc., priority 2008, dated 2011).

Assays:
HT-29 colon cancer cells = experiment: Antiproliferative activity, growth inhibition assay (MTS/WST); type: cell-based; conditions: Homo sapiens, 72 hour, read-out: GI50 (micromolar) HT-29
Description: Antiproliferative Activity Against Cancer Cell Lines By Novel Compounds
The novel compounds of the present invention were tested for their ability to inhibit growth of various cancer cell lines using in vitro growth inhibition assays described below.
Cells were seeded in 96-well culture plates (200 microliters/well at different seeding concentrations depending on cell type) and incubated overnight at 37 degrees Celsius in 5% CO2. After adding compound dilutions to the cells (DMSO concentration kept below 0.5%), the cells were incubated at 37 degrees Celsius in 5% CO2 for 72 hours. The effects on proliferation were determined by addition of MTS reagent (Promega) according to the manufacturer's instruction, followed by incubation for 2 hours at 37 degrees Celsius in 5% CO2, and finally recording the absorbance at 490 nm using an ELISA plate reader.
Similar to MTS assay except that the developer is the CCK-8 reagent (Dojindo) and the plate reader is set to 450 nm absorbance.
GI50 values against HT-29 colon cancer cells for specific representative compounds can be found in Table 3.

[1] = test system: p21 promoter-luciferase construct in HeLa cells; experiment: p21 reporter gene induction; type: cell-based; conditions: relative induction potency compared with SNDX-275 at 3 micromolar
Description: p21 Reporter Gene Induction By Novel Compounds
The novel compounds of the present invention were tested for their ability to induce p21 gene expression using a reporter gene assay involving HeLa cells transfected with a p21 promoter-luciferase construct. The p21 promoter contained the Sp1/Sp3 binding site for HDAC but not the upstream p53 binding site. Briefly, the day before transfection, HeLa cells were seeded at 11,000 cells/well in a 96-well culture plate and incubated at 37 degrees Celsius in 5% CO2 overnight. For transfection, the medium was removed and replaced with 100 microliters/well transfection media previously prepared as follows: 5 microliters serum-free DMEM, 0.15 microliters Fugene 6 reagent, 40 ng p21-luc, 10 ng GFP were mixed gently and incubated at room temperature for 30 minutes; then 98 microliters DMEM (with 10% FBS, 1% penicillin and streptomycin) was added to the DNA:Fugene 6 reagent complex and mixed gently. After incubating the cells for 24 hours at 37 degrees Celsius in 5% CO2, fresh media and test compounds were added to the wells and the cells further incubated for 15 hours at 37 degrees Celsius in 5% CO2. Cells were lysed by adding 80 microliters/well of a cell culture lysis reagent (Promega). 50 microliters of each lysate was taken for GFP detection using an excitation wavelength of 486 nm and detection at 527 nm. 100 microliters Luciferase assay reagent (Promega) was then added to every 20 microliters cell lysate for luminometer detection. […] Induction activity for specific representative compounds can be found in Table 3.

[2] = test system: klf2 promoter-luciferase construct in A204 cells; experiment: klf2 reporter gene induction (p21 versus klf2 selectivity); type: cell-based; conditions: for p21/klf2 (RP3): relative selectivity at 3 micromolar compared with SNDX-275 (p21/klf2 ratio defined as 1.0); for p21/klf2 (RP10): relative selectivity at 10 micromolar compared with SNDX-275 (p21/klf2 ratio defined as 1.0)
Description: klf2 Reporter Gene Induction By Novel Compounds
The novel compounds of the present invention were tested for their ability to induce klf2 gene expression using a reporter gene assay involving A204 cells transfected with a klf2 promoter-luciferase construct. The klf2 promoter contained the MEF2 binding site for HDAC3/class IIa HDAC complex. Briefly, the day before transfection, A204 cells were seeded at 11,000 cells/well in a 96-well culture plate and incubated at 37 degrees Celsius in 5% CO2 overnight. For transfection, the medium was removed and replaced with 100 microliters/well transfection media previously prepared as follows: 5 microliters serum-free DMEM, 0.15 microliters Fugene 6 reagent, 40 ng klf2-luc, 10 ng GFP were mixed gently and incubated at room temperature for 30 minutes; then 98 microliters DMEM (with 10% FBS, 1% penicillin and streptomycin) was added to the DNA:Fugene 6 reagent complex and mixed gently. After incubating the cells for 24 hours at 37 degrees Celsius in 5% CO2, fresh media and test compounds were added to the wells and the cells further incubated for 15 hours at 37 degrees Celsius in 5% CO2. Finally, 10 ng/ml TNF-a was added and the cells further incubated for 4 hours. Cells were lysed by adding 80 microliters/well of a cell culture lysis reagent (Promega). 50 microliters of each lysate was taken for GFP detection using an excitation wavelength of 486 nm and detection at 527 nm. 100 microliters Luciferase assay reagent (Promega) was then added to every 20 microliters cell lysate for luminometer detection.

[3] = test system: histone deacetylase (HeLa nuclear extract); experiment: HeLa extract HDAC fluorometric assay; type: biochemical; conditions: relative inhibitory potency compared with SNDX-275 at 30 micromolar
Description: HDAC Inhibition by Novel Compounds: HeLa Extract HDAC Fluorometric Assay
Novel compounds were tested for their ability to inhibit histone deacetylase using an in vitro deacetylation assay. The enzyme source for this assay was HeLa nuclear extract. The substrate consisted of a commercial product containing an acetylated lysine side chain (both HeLa extract and substrate are available commercially from BIOMOL Research Laboratories, Inc., Plymouth Meeting, Pa.). After deacetylation of the substrate by incubation with HeLa nuclear extract, subsequent exposure to a developing reagent produces a fluorophore that is directly proportional to the level of deacetylation. Using the substrate concentration at the Km for the HeLa nuclear extract, the deacetylation assay was performed in the presence of novel compounds at 30 micromolar and the percent enzyme inhibition relative to a known reference HDAC inhibitor (SNDX-275) was determined. […] Inhibitory activity for specific representative compounds can be found in Table 3.

Compound | GI50 (HT-29 colon cancer cells) [µM] | HD (RP30) [3] [%] | p21 (RP3) [1] [%] | p21/klf2 (RP3) [2] | p21/klf2 (RP10) [2]
CN(C)[C@@H]1CCN(C(C(=O)Nc2ccc(C(F)(F)F)cc2)c2ccc(/C=C/C(=O)Nc3ccccc3N)cc2)C1 (stereo partly drawn) [Example 7-6, (E)-N-(2-Amino-phenyl)-3-{4-[((R)-3-dimethylamino-pyrrolidin-1-yl)-(4-trifluoromethyl-phenylcarbamoyl)-methyl]-phenyl}-acrylamide] | 3 | 175 | 216 | 2.3 | 2.9
CCN(CC)C1CCN(C(C(=O)Nc2ccc(C(F)(F)F)cc2)c2ccc(/C=C/C(=O)Nc3ccccc3N)cc2)C1 (stereo not shown) [Example 7-7, (E)-N-(2-Amino-phenyl)-3-{4-[(3-diethylamino-pyrrolidin-1-yl)-(4-trifluoromethyl-phenylcarbamoyl)-methyl]-phenyl}-acrylamide] | 2.3 | 183 | 230 | 2.1 | 2.0
CCN(CC)C1CCN(C(C(=O)Nc2ccc(C#N)cc2)c2ccc(/C=C/C(=O)Nc3ccccc3N)cc2)C1 (stereo not shown) [Example 7-16, (E)-N-(2-Amino-phenyl)-3-{4-[(4-cyano-phenylcarbamoyl)-(3-diethylamino-pyrrolidin-1-yl)-methyl]-phenyl}-acrylamide] | 0.2 | 159 | 157 | 0.7 | 0.9
CCN(CCO)C1CCN(C(C(=O)Nc2ccc(Br)cc2)c2ccc(/C=C/C(=O)Nc3ccccc3N)cc2)C1 (stereo not shown) [Example 7-29, (E)-N-(2-Amino-phenyl)-3-[4-((4-bromo-phenylcarbamoyl)-{3-[ethyl-(2-hydroxy-ethyl)-amino]-pyrrolidin-1-yl}-methyl)-phenyl]-acrylamide] |  | 144 | 293 | 1.2 | 1.4

More lines, in order of falling GI50 (HT-29 colon cancer cells), values ahead:

GI50 (HT-29 colon cancer cells) [µM] | HD (RP30) [3] [%] | Compound | p21 (RP3) [1] [%] | p21/klf2 (RP3) [2] | p21/klf2 (RP10) [2]
0.7 | 164 | CCN(CC)C1CCN(C(C(=O)Nc2ccc(F)cc2)c2ccc(/C=C/C(=O)Nc3ccccc3N)cc2)C1 (stereo not shown) [Example 7-17, (E)-N-(2-Amino-phenyl)-3-{4-[(3-diethylamino-pyrrolidin-1-yl)-(4-fluoro-phenylcarbamoyl)-methyl]-phenyl}-acrylamide] | 163 | 0.7 | 1.0
0.7 | 111 | Nc1ccccc1NC(=O)/C=C/c1ccc(C(C(=O)Nc2ccc(Br)cc2)N2CCC(N3CCCCC3)C2)cc1 (stereo not shown) [Example 7-30, (E)-N-(2-Amino-phenyl)-3-{4-[(4-bromo-phenylcarbamoyl)-(3-piperidin-1-yl-pyrrolidin-1-yl)-methyl]-phenyl}-acrylamide] | 338 | 1.2 | 0.1
0.4 | 163 | CCN(CC)C1CCN(C(C(=O)Nc2ccc(Cl)cc2)c2ccc(/C=C/C(=O)Nc3ccccc3N)cc2)C1 (stereo not shown) [Example 7] | 187 | 0.8 | 1.2
